Data: patent publication US11085056B2, “Transfection complexes and methods of using the same” (MOLECULAR TRANSFER, INC., priority 2015, dated 2021)

Legend:
HeLa Cells [1] = assay: Transfection of HeLa cells with DOTMA/DOPE/peptide and eGFP plasmid, fluorescent plate reader; assay type: cell-based; conditions: DOTMA/DOPE 1:1 plus peptide with RRRRRRRRRRRR (SEQ ID NO: 109) at n terminus; EF1Alpha eGFP plasmid; 0.01 mL complex; 42 hours
Procedure: (§1) Cells were plated to so that on the day of transfection the cells were 60-70% confluent in 96 well tissue culture plates. A DOMTA/DOPE Lipid solution (1:1 molar ratio) at 2 mg/mL in water were mixed with an equal volume of surface ligand peptides that had the nucleic acid binding moiety RRRRRRRRRRRR (SEQ ID NO: 109) covalently linked to the n terminus of each peptide during peptide synthesis. Peptides were at 2 mg/mL in water. The DOTMA/DOPE and the surface ligand peptide solution the transfection reagent was diluted 1 to 1 (v/v) in water. DOMTA/DOPE/PEPTIDE solutions were added to 0.1 mL of a plasmid DNA solution (EF1Alpha eGFP plasmid) at 5 μg/mL in OptiMEM. Lipofectamine 2000 was obtained from Life Technologies.
(§2) All solutions were at room temperature. A volume of 0.2 mL of a 5 μg/mL solution of DNA was aliquoted into each well of a non-tissue cultured treated plate. 4.0 μL of transfection reagents were added to DNA solutions respectively. The transfection reagent and DNA solution was mixed by pipetting up and down twice. Transfection complexes were formed for 10 minutes. After 10 minutes, 0.01 or 0.02 mL of the transfection complex was added to cells. HuVEC, HeLa, human adult keratinocytes, human primary adult fibroblast, and rat cortical neurons all respectively received 0.01 mL of the tramsfectopm complex. Human skeletal muscle cells, mouse C2C12 cells, Jurkat, and THP-1 cells received 0.02 mL of the transfection complex. Cells were incubated for 42 hours at 37° C. at 5% CO2. Plates were read on a fluorescent plate reader. Cells were also examined visually under a microscope to assess the extent of transfection (in terms of the percent of cells transfected) with a fluorescent microscope. Other modes of analysis, for example quantification with B-galactosidase or luciferase reports plasmids can also be used. […] Surface ligand that caused increase expression of GFP over the lipid DOTMA with no surface ligand were considered to enhance transfection or had higher % cells transfected were considered to enhance transfection. Peptides that gave greater than 2 fold enhancement are noted in bold and could be further optimized by adding different transfection enhancers or could be used with different cationic lipids or polymers.

HuVec Cells = assay: Transfection of HuVec cells with DOTMA/DOPE/peptide and eGFP plasmid, fluorescent plate reader; assay type: cell-based; conditions: DOTMA/DOPE 1:1 plus peptide with RRRRRRRRRRRR (SEQ ID NO: 109) at n terminus; EF1Alpha eGFP plasmid; 0.01 mL complex; 42 hours
Procedure: as §1, §2

NL-1 iPS Cells = assay: Transfection of NL-1 iPS cells with DOTMA/DOPE/peptide and eGFP plasmid, fluorescent plate reader; assay type: cell-based; conditions: DOTMA/DOPE 1:1 plus peptide with RRRRRRRRRRRR (SEQ ID NO: 109) at n terminus; EF1Alpha eGFP plasmid; 42 hours
Procedure: as §1, §2

C2C12 Cells = assay: Transfection of C2C12 cells with DOTMA/DOPE/peptide and eGFP plasmid, fluorescent plate reader; assay type: cell-based, mouse; conditions: DOTMA/DOPE 1:1 plus peptide with RRRRRRRRRRRR (SEQ ID NO: 109) at n terminus; EF1Alpha eGFP plasmid; 0.02 mL complex; 42 hours
Procedure: as §1, §2

Human Fibroblast Cells = assay: Transfection of human fibroblast cells with DOTMA/DOPE/peptide and eGFP plasmid, fluorescent plate reader; assay type: cell-based; conditions: DOTMA/DOPE 1:1 plus peptide with RRRRRRRRRRRR (SEQ ID NO: 109) at n terminus; EF1Alpha eGFP plasmid; 0.01 mL complex; 42 hours
Procedure: as §1, §2

Jurkat Cells = assay: Transfection of Jurkat cells with DOTMA/DOPE/peptide and eGFP plasmid, fluorescent plate reader; assay type: cell-based; conditions: DOTMA/DOPE 1:1 plus peptide with RRRRRRRRRRRR (SEQ ID NO: 109) at n terminus; EF1Alpha eGFP plasmid; 0.02 mL complex; 42 hours
Procedure: as §1, §2

HeLa Cells [2] = assay: Transfection of HeLa cells with DOTMA/SEQ ID NO: 72/peptide compared with Lipofectamine 2000; assay type: cell-based; conditions: fusogenic peptide 0.1 mg/mL
Procedure: as §1, §2
The fusogenic peptide was added to the DOMTA/peptide formulation to achieve a final concentration of 0.1 mg/mL to see if transfection reagents were further enhanced by the addition of a fusogenic peptide and could provide higher transfection efficiency into HeLa cells and expression than the commercially available Lipofectamine 2000.

some examined cell types = assay: Transfection expression and % cells transfected over the no peptide control; assay type: cell-based; conditions: on some examined cell types
Procedure: as §1, §2

[3] = 0.1 μL of DOTMA/SEQ ID NO: 72/Peptide in well of a 96 well plate
[4] = 0.2 μL of DOTMA/SEQ ID NO: 72/Peptide in well of a 96 well plate
[5] = 0.3 μL of DOTMA/SEQ ID NO: 72/Peptide in well of a 96 well plate
[6] = 0.4 μL of DOTMA/SEQ ID NO: 72/Peptide in well of a 96 well plate

Substance | RF (Relative Fluorescence) of Transfection of HeLa Cells (HeLa Cells [1]) | RF (Relative Fluorescence) of Transfection of HuVec Cells (HuVec Cells) | RF (Relative Fluorescence) of Transfection of NL-1 iPS Cells (NL-1 iPS Cells) | RF (Relative Fluorescence) of Transfection of C2C12 Cells (C2C12 Cells) | RF (Relative Fluorescence) of Transfection of Human Fibroblast Cells (Human Fibroblast Cells) | RF (Relative Fluorescence) of Transfection of Jurkat Cells (Jurkat Cells) | RF (Relative Fluorescence), DOTMA/SEQ ID NO: 72/Peptide, HeLa Cells (HeLa Cells [2]; [3]) | RF (Relative Fluorescence), DOTMA/SEQ ID NO: 72/Peptide, HeLa Cells (HeLa Cells [2]; [4]) | RF (Relative Fluorescence), DOTMA/SEQ ID NO: 72/Peptide, HeLa Cells (HeLa Cells [2]; [5]) | RF (Relative Fluorescence), DOTMA/SEQ ID NO: 72/Peptide, HeLa Cells (HeLa Cells [2]; [6]) | transfection expression and the % cells transfected over the no peptide control (some examined cell types)
323 (HQQDLGTAGSCLRKFSTMFLF; Peptidic transfection agent) [compound 323] | 14067 | 12815 | 21694 | 7698 | 4826 | 2900 | 15537 | 16620 | 10839 | 9244 | increased
350 (SIGFRGDGQTC; Peptidic transfection agent) [compound 350] | 13313 | 13163 | 19132 | 2631 | 7105 | 9184 | 24092 | 23238 | 19802 | 22255 | increased
360 (GDLGRPGRKGRPGPP; Peptidic transfection agent) [compound 360] | 8516 | 24042 | 27572 | 2090 | 5347 | 16607 | 9946 | 11168 | 10381 | 8995 | increased
327 (VAEIDGIEL; Peptidic transfection agent) [compound 327] | 5345 | 21018 | 31383 | 2043 | 4662 | 14546 | – | – | – | – | increased
361 (YIGSR; Peptidic transfection agent) [compound 361] | 3698 | 6017 | 9363 | 585 | 7014 | 7006 | – | – | – | – | increased
332 (TWYKIAFQRNRK; Peptidic transfection agent) [compound 332] | 9198 | 4221 | 8725 | 537 | 5178 | 3052 | – | – | – | – | increased
354 (SINNTAVMQRLT; Peptidic transfection agent) [compound 354] | 4403 | 19284 | 24043 | 1912 | 4998 | 16705 | – | – | – | – | increased
352 (RIQNLLKITNLRIKFVK; Peptidic transfection agent) [compound 352] | 32126 | 3130 | 11628 | 3324 | 3059 | 3150 | – | – | – | – | increased
220 (ATETTITIS; Peptidic transfection agent) [compound 220] | 9398 | 8737 | 15892 | 1470 | 4516 | 6428 | – | – | – | – | increased
239 (KNSFMALYLSKGRLVFALG; Peptidic transfection agent) [compound 239] | 2717 | 1404 | 4129 | 10620 | 4084 | 2343 | – | – | – | – | increased
345 (TAGSCLRKFSTMFLF; Peptidic transfection agent) [compound 345] | 8493 | 2939 | 7836 | 6569 | 2816 | 2462 | – | – | – | – | increased
